≈ marks a conversion by molar mass, not a printed value.
Key:
Format in all cases: functional
HL-60(TB) = test: Anticancer activity against Homo sapiens (human) HL-60(TB) cells after 48 hr by SRB assay; settings: HL-60, 48 h; for CC50: read-out: LC50 (the source's name)
PC-3 = test: Growth inhibition of Homo sapiens (human) PC3 cells at 10 uM after 48 hr by SRB assay; settings: PC-3, 48 h, read-out: GI
KM12 = test: Anticancer activity against Homo sapiens (human) KM12 cells after 48 hr by SRB assay; settings: KM12, 48 h; for CC50: read-out: LC50 (the source's name)
OVCAR-8 = test: Growth inhibition of Homo sapiens (human) OVCAR8 cells at 10 uM after 48 hr by SRB assay; settings: OVCAR-8, 48 h, read-out: GI
NCI-H23 [1] = test: Anticancer activity against Homo sapiens (human) NCI-H23 cells after 48 hr by SRB assay; settings: NCI-H23, 48 h; for CC50: read-out: LC50 (the source's name)
IGROV-1 = test: Growth inhibition of Homo sapiens (human) IGROV1 cells at 10 uM after 48 hr by SRB assay; settings: IGROV-1, 48 h, read-out: GI
SK-MEL-28 = test: Anticancer activity against Homo sapiens (human) SK-MEL-28 cells after 48 hr by SRB assay; settings: SK-MEL-28, 48 h
CCRF-CEM = test: Anticancer activity against Homo sapiens (human) CCRF-CEM cells after 48 hr by SRB assay; settings: for CC50: read-out: LC50 (the source's name)
TK-10 [2] = test: Anticancer activity against Homo sapiens (human) TK10 cells after 48 hr by SRB assay; settings: TK-10, 48 h; for CC50: read-out: LC50 (the source's name)
UO-31 [3] = test: Anticancer activity against Homo sapiens (human) UO31 cells after 48 hr by SRB assay; settings: UO-31, 48 h
DU-145 = test: Anticancer activity against Homo sapiens (human) DU145 cells after 48 hr by SRB assay; settings: DU-145, 48 h
SF-295 = test: Anticancer activity against Homo sapiens (human) SF295 cells after 48 hr by SRB assay; settings: SF-295, 48 h; for CC50: read-out: LC50 (the source's name)
LOX IMVI [4] = test: Growth inhibition of Homo sapiens (human) LOXIMVI cells at 10 uM after 48 hr by SRB assay; settings: read-out: GI
UO-31 [5] = test: Growth inhibition of Homo sapiens (human) UO31 cells at 10 uM after 48 hr by SRB assay; settings: UO-31, 48 h, read-out: GI
SF-539 [6] = test: Growth inhibition of Homo sapiens (human) SF539 cells at 10 uM after 48 hr by SRB assay; settings: SF-539, 48 h, read-out: GI
LOX IMVI [7] = test: Anticancer activity against Homo sapiens (human) LOXIMVI cells after 48 hr by SRB assay; settings: for CC50: read-out: LC50 (the source's name)
SF-539 [8] = test: Anticancer activity against Homo sapiens (human) SF539 cells after 48 hr by SRB assay; settings: SF-539, 48 h; for CC50: read-out: LC50 (the source's name)
OVCAR-3 = test: Anticancer activity against Homo sapiens (human) OVCAR3 cells after 48 hr by SRB assay; settings: OVCAR-3, 48 h
NCI-H23 [9] = test: Growth inhibition of Homo sapiens (human) NCI-H23 cells at 10 uM after 48 hr by SRB assay; settings: NCI-H23, 48 h, read-out: GI
NCI-H322M = test: Anticancer activity against Homo sapiens (human) NCI-H322M cells after 48 hr by SRB assay; settings: for CC50: read-out: LC50 (the source's name)
U-251 = test: Anticancer activity against Homo sapiens (human) U251 cells after 48 hr by SRB assay; settings: U-251, 48 h; for CC50: read-out: LC50 (the source's name)
MCF7 = test: Growth inhibition of Homo sapiens (human) MCF7 cells at 10 uM after 48 hr by SRB assay; settings: MCF7, 48 h, read-out: GI
MDA-MB-435 = test: Growth inhibition of Homo sapiens (human) MDA-MB-435 cells at 10 uM after 48 hr by SRB assay; settings: MDA-MB-435, 48 h, read-out: GI
UACC-62 = test: Growth inhibition of Homo sapiens (human) UACC62 cells at 10 uM after 48 hr by SRB assay; settings: UACC-62, 48 h, read-out: GI
Candida albicans = test: Antimicrobial activity against Candida albicans DSM 70014 after 48 hr by two-fold serial broth dilution method; settings: DSM 70014, 48 h
SF-268 = test: Anticancer activity against Homo sapiens (human) SF268 cells after 48 hr by SRB assay; settings: SF-268, 48 h; for CC50: read-out: LC50 (the source's name)
ACHN = test: Anticancer activity against Homo sapiens (human) ACHN cells after 48 hr by SRB assay; settings: for CC50: read-out: LC50 (the source's name)
Malme-3M = test: Growth inhibition of Homo sapiens (human) MALME-3M cells at 10 uM after 48 hr by SRB assay; settings: read-out: GI
OVCAR-5 = test: Anticancer activity against Homo sapiens (human) OVCAR5 cells after 48 hr by SRB assay; settings: OVCAR-5, 48 h; for CC50: read-out: LC50 (the source's name)
HT-29 = test: Anticancer activity against Homo sapiens (human) HT-29 cells after 48 hr by SRB assay; settings: HT-29, 48 h; for CC50: read-out: LC50 (the source's name)
SK-OV-3 = test: Growth inhibition of Homo sapiens (human) SKOV3 cells at 10 uM after 48 hr by SRB assay; settings: SK-OV-3, 48 h, read-out: GI
HCC 2998 = test: Growth inhibition of Homo sapiens (human) HCC2998 cells at 10 uM after 48 hr by SRB assay; settings: HCC 2998, 48 h, read-out: GI
TK-10 [10] = test: Growth inhibition of Homo sapiens (human) TK10 cells at 10 uM after 48 hr by SRB assay; settings: TK-10, 48 h, read-out: GI

COc1ccc(OC)c(/C=C/C(=O)N/N=C/c2ccc(Cl)cc2)c1
GI50 (HL-60(TB)): 0.0785 µM
TGI (HL-60(TB)): 0.483 µM
CC50 (HL-60(TB)): > 100 µM
inhibition of growth at 10 µM (PC-3): 73.8%
GI50 (KM12): 0.0522 µM
TGI (KM12): 8.48 µM
CC50 (KM12): > 100 µM
inhibition of growth at 10 µM (OVCAR-8): 79%
GI50 (NCI-H23 [1]): 0.148 µM
TGI (NCI-H23 [1]): 2.46 µM
CC50 (NCI-H23 [1]): > 100 µM
inhibition of growth at 10 µM (IGROV-1): 82.1%
GI50 (SK-MEL-28): 0.372 µM
LC50 (concentration killing 50% of cells) (SK-MEL-28): > 100 µM
TGI (SK-MEL-28): > 100 µM
GI50 (CCRF-CEM): 0.228 µM
TGI (CCRF-CEM): > 100 µM
CC50 (CCRF-CEM): > 100 µM
GI50 (TK-10 [2]): 0.691 µM
TGI (TK-10 [2]): > 100 µM
CC50 (TK-10 [2]): > 100 µM
GI50 (UO-31 [3]): 3.37 µM
LC50 (50% lethal concentration) (UO-31 [3]): > 100 µM
TGI (UO-31 [3]): > 100 µM
GI50 (DU-145): 0.217 µM
TGI (DU-145): 8.4 µM
CC50 (DU-145; read-out: LC50 (the source's name)): > 100 µM
GI50 (SF-295): 0.129 µM
TGI (SF-295): 6.44 µM
CC50 (SF-295): > 100 µM
inhibition of growth at 10 µM (LOX IMVI [4]): 63.3%
inhibition of growth at 10 µM (UO-31 [5]): 69.9%
inhibition of growth at 10 µM (SF-539 [6]): 143%
GI50 (LOX IMVI [7]): 0.254 µM
TGI (LOX IMVI [7]): > 100 µM
CC50 (LOX IMVI [7]): > 100 µM
GI50 (SF-539 [8]): 0.258 µM
TGI (SF-539 [8]): 3.16 µM
CC50 (SF-539 [8]): > 100 µM
GI50 (OVCAR-3): 0.0335 µM
LC50 (OVCAR-3): > 100 µM
TGI (OVCAR-3): 0.115 µM
inhibition of growth at 10 µM (NCI-H23 [9]): 65.2%
GI50 (NCI-H322M): 0.666 µM
TGI (NCI-H322M): > 100 µM
CC50 (NCI-H322M): > 100 µM
GI50 (U-251): 0.184 µM
TGI (U-251): 1.49 µM
CC50 (U-251): > 100 µM
inhibition of growth at 10 µM (MCF7): 91.1%
inhibition of growth at 10 µM (MDA-MB-435): 132%
inhibition of growth at 10 µM (UACC-62): 57.9%
MFC (Candida albicans): 50 µg/mL (≈ 145 µM)
MIC (Candida albicans): 25 µg/mL (≈ 72.5 µM)
GI50 (SF-268): 0.718 µM
TGI (SF-268): > 100 µM
CC50 (SF-268): > 100 µM
GI50 (ACHN): 1.49 µM
TGI (ACHN): > 100 µM
CC50 (ACHN): > 100 µM
inhibition of growth at 10 µM (Malme-3M): 45.9%
GI50 (OVCAR-5): 10.9 µM
TGI (OVCAR-5): > 100 µM
CC50 (OVCAR-5): > 100 µM
GI50 (HT-29): 0.0435 µM
TGI (HT-29): 1.52 µM
CC50 (HT-29): > 100 µM
inhibition of growth at 10 µM (SK-OV-3): 105%
inhibition of growth at 10 µM (HCC 2998): 97.7%
inhibition of growth at 10 µM (TK-10 [10]): 49%

COc1ccc(OC)c(/C=C/C(=O)N/N=C/c2ccccc2)c1
GI50 (HL-60(TB)): 2.03 µM
TGI (HL-60(TB)): 13.7 µM
CC50 (HL-60(TB)): > 100 µM
inhibition of growth at 10 µM (PC-3): 36.5%
GI50 (KM12): 0.834 µM
TGI (KM12): 3.75 µM
CC50 (KM12): 29.4 µM
inhibition of growth at 10 µM (OVCAR-8): 45.2%
GI50 (NCI-H23 [1]): 5.4 µM
TGI (NCI-H23 [1]): 87 µM
CC50 (NCI-H23 [1]): > 100 µM
inhibition of growth at 10 µM (IGROV-1): 61.5%
GI50 (SK-MEL-28): 8.89 µM
LC50 (concentration killing 50% of cells) (SK-MEL-28): > 100 µM
TGI (SK-MEL-28): > 100 µM
GI50 (CCRF-CEM): 3.97 µM
TGI (CCRF-CEM): > 100 µM
CC50 (CCRF-CEM): > 100 µM
GI50 (TK-10 [2]): 16.6 µM
TGI (TK-10 [2]): > 100 µM
CC50 (TK-10 [2]): > 100 µM
GI50 (UO-31 [3]): 5.9 µM
LC50 (50% lethal concentration) (UO-31 [3]): > 100 µM
TGI (UO-31 [3]): 85.5 µM
GI50 (SF-295): 1 µM
TGI (SF-295): 11.1 µM
CC50 (SF-295): > 100 µM
inhibition of growth at 10 µM (LOX IMVI [4]): 57.9%
inhibition of growth at 10 µM (UO-31 [5]): 43.4%
inhibition of growth at 10 µM (SF-539 [6]): 48.2%
GI50 (LOX IMVI [7]): 4.11 µM
TGI (LOX IMVI [7]): > 100 µM
CC50 (LOX IMVI [7]): > 100 µM
GI50 (SF-539 [8]): 4.42 µM
TGI (SF-539 [8]): 25.1 µM
CC50 (SF-539 [8]): > 100 µM
GI50 (OVCAR-3): 3.15 µM
LC50 (OVCAR-3): > 100 µM
TGI (OVCAR-3): > 100 µM
inhibition of growth at 10 µM (NCI-H23 [9]): 34.9%
GI50 (NCI-H322M): 5.22 µM
TGI (NCI-H322M): > 100 µM
CC50 (NCI-H322M): > 100 µM
GI50 (U-251): 3.68 µM
TGI (U-251): > 100 µM
CC50 (U-251): > 100 µM
inhibition of growth at 10 µM (MCF7): 82.7%
inhibition of growth at 10 µM (MDA-MB-435): 108%
inhibition of growth at 10 µM (UACC-62): 39%
MFC (Candida albicans): 100 µg/mL (≈ 322 µM)
MIC (Candida albicans): 100 µg/mL (≈ 322 µM)
GI50 (SF-268): 7.56 µM
TGI (SF-268): > 100 µM
CC50 (SF-268): > 100 µM
GI50 (ACHN): 9.66 µM
TGI (ACHN): > 100 µM
CC50 (ACHN): > 100 µM
inhibition of growth at 10 µM (Malme-3M): 41%
GI50 (OVCAR-5): 18 µM
TGI (OVCAR-5): > 100 µM
CC50 (OVCAR-5): > 100 µM
GI50 (HT-29): 2.1 µM
TGI (HT-29): > 100 µM
CC50 (HT-29): > 100 µM
inhibition of growth at 10 µM (SK-OV-3): 40%
inhibition of growth at 10 µM (HCC 2998): 33.6%
inhibition of growth at 10 µM (TK-10 [10]): 43.3%
